Laboratory results from ChEMBL document CHEMBL1201862, “PubChem BioAssay data set” (2004).
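Interpolation was linear, between the two tested concentrations surrounding the appropriate level; five concentrations were tested over 48 hours in 96-well plates. Abbreviation: GI50, concentration required for 50% inhibition of growth.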 The source made the active and inactive calls. No stated cut-off is given here; in the data, active = GI50 up to about 1.1 µM and inactive = higher.

Legend:
Test in all cases: NCI anticancer screen, dose series, 48 h
M14 = test system: M14
786-0 = test system: 786-0
SF-539 = test system: SF-539
RPMI-8226 = test system: RPMI-8226
SK-OV-3 = test system: SK-OV-3
SN12C = test system: SN12C
NCI-H460 = test system: NCI-H460
HCT-15 = test system: HCT-15
A549 = test system: A549
CCRF-CEM = test system: CCRF-CEM
UACC-62 = test system: UACC-62
ACHN = test system: ACHN
NCI-H226 = test system: NCI-H226
OVCAR-5 = test system: OVCAR-5
DU-145 = test system: DU-145
KM12 = test system: KM12
MDA-MB-435 = test system: MDA-MB-435
MDA-N = test system: MDA-N
BT-549 = test system: BT-549
RXF 393 = test system: RXF 393
SNB-19 = test system: SNB-19
U-251 = test system: U-251
MOLT-4 = test system: MOLT-4
SF-268 = test system: SF-268
EKVX = test system: EKVX
HL-60 = test system: HL-60
Hs-578T = test system: Hs-578T
PC-3 = test system: PC-3
HOP-62 = test system: HOP-62
NCI/ADR-RES = test system: NCI/ADR-RES
SF-295 = test system: SF-295
UO-31 = test system: UO-31
MDA-MB-231 = test system: MDA-MB-231
HCT-116 = test system: HCT-116
Malme-3M = test system: Malme-3M
OVCAR-3 = test system: OVCAR-3
SK-MEL-2 = test system: SK-MEL-2
K562 = test system: K562
A498 = test system: A498
HOP-92 = test system: HOP-92
SW-620 = test system: SW-620
TK-10 = test system: TK-10
CAKI-1 = test system: CAKI-1
T47D = test system: T47D
LOX IMVI = test system: LOX IMVI
SK-MEL-28 = test system: SK-MEL-28
HT-29 = test system: HT-29
OVCAR-8 = test system: OVCAR-8
IGROV-1 = test system: IGROV-1
OVCAR-4 = test system: OVCAR-4
SK-MEL-5 = test system: SK-MEL-5
MCF7 = test system: MCF7
COLO 205 = test system: COLO 205
UACC-257 = test system: UACC-257
NCI-H522 = test system: NCI-H522
NCI-H23 = test system: NCI-H23
SR = test system: SR
SNB-75 = test system: SNB-75

Measured: GI50

N#CCCN(CCC#N)c1ccc(/C=C2\N=C(c3ccccc3)N(NC(N)=S)C2=O)cc1
> 100 µM: HCT-15
inactive: M14 > 100 µM | 786-0 > 100 µM | SF-539 > 100 µM | RPMI-8226 > 100 µM | SK-OV-3 > 100 µM | SN12C > 100 µM | NCI-H460 > 100 µM | A549 > 100 µM | CCRF-CEM > 100 µM | UACC-62 > 100 µM | ACHN > 100 µM | NCI-H226 > 100 µM | OVCAR-5 > 100 µM | DU-145 > 100 µM | KM12 12.9 µM | MDA-MB-435 41.4 µM | MDA-N > 100 µM | BT-549 > 100 µM | RXF 393 > 100 µM | SNB-19 > 100 µM | U-251 > 100 µM | MOLT-4 > 100 µM | SF-268 > 100 µM | EKVX > 100 µM | HL-60 > 100 µM | Hs-578T > 100 µM | PC-3 > 100 µM | HOP-62 > 100 µM | NCI/ADR-RES > 100 µM | SF-295 > 100 µM | UO-31 > 100 µM | MDA-MB-231 > 100 µM | HCT-116 > 100 µM | Malme-3M > 100 µM | OVCAR-3 > 100 µM | SK-MEL-2 > 100 µM | K562 > 100 µM | A498 > 100 µM | HOP-92 > 100 µM | SW-620 > 100 µM | TK-10 > 100 µM | CAKI-1 > 100 µM | T47D > 100 µM | LOX IMVI > 100 µM | SK-MEL-28 > 100 µM | HT-29 > 100 µM | OVCAR-8 > 100 µM | IGROV-1 > 100 µM | OVCAR-4 > 100 µM | SK-MEL-5 > 100 µM | MCF7 > 100 µM | COLO 205 > 100 µM | UACC-257 > 100 µM

COc1ccc(C(O)(c2ccccc2)c2nccc3ccccc23)cc1 (centres undefined)
4.58 µM: HCT-15
inactive: M14 2.76 µM | NCI-H522 6.35 µM | 786-0 7.62 µM | RPMI-8226 7.36 µM | SK-OV-3 4.06 µM | NCI-H23 16.6 µM | SN12C 22.1 µM | NCI-H460 5.82 µM | A549 7.19 µM | CCRF-CEM 2.01 µM | UACC-62 3.74 µM | ACHN 12.3 µM | OVCAR-5 11.5 µM | DU-145 6.22 µM | KM12 5.71 µM | MDA-MB-435 3.6 µM | MDA-N 3.2 µM | BT-549 8.41 µM | RXF 393 3.19 µM | SNB-19 11.9 µM | U-251 11.7 µM | MOLT-4 2.29 µM | SF-268 12.4 µM | EKVX 11.9 µM | HL-60 2.32 µM | Hs-578T 4.71 µM | PC-3 3.02 µM | HOP-62 5.28 µM | NCI/ADR-RES 7.05 µM | SF-295 6.76 µM | UO-31 21 µM | MDA-MB-231 7.31 µM | HCT-116 4.76 µM | OVCAR-3 2.48 µM | K562 2.7 µM | TK-10 27.8 µM | CAKI-1 8 µM | T47D 36.8 µM | LOX IMVI 5.18 µM | SK-MEL-28 41.4 µM | HT-29 7.46 µM | OVCAR-8 18.1 µM | IGROV-1 9.86 µM | OVCAR-4 11 µM | SK-MEL-5 3.38 µM | SR 7.74 µM | MCF7 4.32 µM | COLO 205 4.47 µM | UACC-257 7.74 µM
active: Malme-3M 0.0966 µM

CCn1c2c(c3ccccc3c1=O)C(=O)c1ccccc1-2
> 100 µM: HCT-15
inactive: M14 > 100 µM | NCI-H522 > 100 µM | 786-0 > 100 µM | SF-539 19.1 µM | RPMI-8226 > 100 µM | SK-OV-3 > 100 µM | NCI-H23 > 100 µM | SN12C > 100 µM | A549 > 100 µM | CCRF-CEM 22 µM | UACC-62 > 100 µM | NCI-H226 > 100 µM | OVCAR-5 > 100 µM | DU-145 > 100 µM | KM12 > 100 µM | MDA-MB-435 > 100 µM | MDA-N > 100 µM | BT-549 > 100 µM | SNB-19 > 100 µM | SNB-75 > 100 µM | U-251 > 100 µM | MOLT-4 3.12 µM | SF-268 > 100 µM | EKVX > 100 µM | HL-60 > 100 µM | Hs-578T 74.5 µM | PC-3 > 100 µM | HOP-62 > 100 µM | NCI/ADR-RES > 100 µM | SF-295 > 100 µM | UO-31 > 100 µM | MDA-MB-231 85.7 µM | HCT-116 > 100 µM | Malme-3M > 100 µM | OVCAR-3 > 100 µM | SK-MEL-2 > 100 µM | K562 > 100 µM | A498 > 100 µM | HOP-92 > 100 µM | SW-620 > 100 µM | TK-10 > 100 µM | CAKI-1 > 100 µM | T47D > 100 µM | LOX IMVI > 100 µM | SK-MEL-28 > 100 µM | HT-29 > 100 µM | OVCAR-8 > 100 µM | IGROV-1 > 100 µM | OVCAR-4 > 100 µM | SK-MEL-5 50.1 µM | MCF7 > 100 µM | COLO 205 > 100 µM | UACC-257 > 100 µM
